Read-outs that look alike come from different tables or passages of the source.
Experiments:
T27A cells = experiment: Inhibition of T27A cell proliferation by [3H]thymidine incorporation; assay type: cell-based, murine
Procedure: The murine non-T non-B leukemia cell line T27A (ATCC, Rockville, Md., USA) was cultured in RPMI 1640 medium (Gibco/BRI, Gaithersburg, Md.) supplemented with 25 mM HEPES buffer, 2 mM glutamine, 100 U penicillin/ml, 100 μg streptomycin/ ml and 2 or 10% bovine calf serum (Hyclone, Logan, Utah) in a humidified 5% CO2 atmosphere. Cell viability was determined by Trypan blue exclusion.
DHA (NuChek Prep, Elysan, Minn.) was introduced into RPMI 1640 medium supplemented with 1% (w/v) fatty acid-free bovine serum albumin (Sigma) as described by Spector and Hoak (33) with modifications we have reported (34).
Liposomes were prepared fresh for each use. The bulk of the lipids was 18:0, 18:1 PC (up to 90 mol %), with 10 mol % 18:0, 18:1 PE added to augment fusion between liposomes and the cell-surface membrane. The control contained no additional lipids; the experimental groups contained up to an additional 15 mol % 18:0, 22:6 PC or up to 0.43 mol % 18:0, MTX-PC or 22:6, MTX-PC. The solvent was evaporated under nitrogen and the lipids dried under vacuum for 2 h. The lipids were rehydrated in RPMI medium, and multilamellar vesicles were prepared by vortexing 1 ml of lipids at a concentration of 2 mg/ml. Liposomes (small unilamellar vesicles) were created by sonicating the multilamellar vesicles for 15 min on ice under nitrogen with a Heat Systems W380 disruptor (Farmingdale, N.Y.) set at 1 s cycle time, 60% duty and 3-7% output. Liposome suspensions were centrifuged at low speed (3700 r.p.m.; 2300 g) to remove particulate material and sterile filtered through a 0.2-μm filter. An aliquot of each liposome preparation was tested by thin-layer chromatography to assure that hydrolysis had not occurred.
All concentrations given are final concentrations in the wells. […] Control liposomes were made from 1 mM 18:0, 18:1 PC/ 18:0, 18:1 PE (9/1, mol:mol). After 6 h of incubation, 0.5 μCi/well of [^3H]thymidine (2 Ci/mmol; Amersham, Arlington Heights, Ill.) was added and the incubation continued for an additional 18 h. Cells were then harvested onto glass fiber filters (PHD Cell Harvester; Cambridge Technology, Watertown, Mass.) and the radioactivity present in DNA on the filters was measured by liquid scintillation counting.
The IC50 for each agent alone was determined by non-linear curve fitting with the software package SigmaPlot (SPSS, Chicago, Ill.).

[1] = previous study (26); cited from earlier work
[2] = (35); cited from earlier work
[3] = tested on: several different cell types; conditions: variety of assays in vitro (11, 37-39); cited from earlier work
human neoplastic cells = conditions: (1); cited from earlier work
[4] = lipid included in liposomes of 1 mM 18:0,18:1 PC/18:0,18:1 PE (9:1), 24 h, read-out: IC50, inhibition of proliferation

CCCCCCCCCCCCCCCCCC(=O)OC[C@H](COP(=O)([O-])OCC[N+](C)(C)C)OC(=O)CC[C@H](NC(=O)c1ccc(N(C)Cc2cnc3nc(N)nc(N)c3n2)cc1)C(=O)O [18:0, MTXγ-PC]
IC50 (T27A cells; [4]): 2110 nM

CC/C=C\C/C=C\C/C=C\C/C=C\C/C=C\C/C=C\CCC(=O)OC[C@H](COP(=O)([O-])OCC[N+](C)(C)C)OC(=O)CC/C=C\C/C=C\C/C=C\C/C=C\C/C=C\C/C=C\CC [22:6, 22:6 PC, 1,2-didocosahexaenoyl-sn-glycero-3-phosphocholine]
direct cytotoxicity [1]: comparable to 18:0, 22:6 PC

CC/C=C\C/C=C\C/C=C\C/C=C\C/C=C\C/C=C\CCC(=O)OC[C@H](COP(=O)([O-])OCC[N+](C)(C)C)OC(=O)CC[C@H](NC(=O)c1ccc(N(C)Cc2cnc3nc(N)nc(N)c3n2)cc1)C(=O)O [22:6, MTXγ-PC]
IC50 (T27A cells; [4]): 1190 nM
potency as inhibitor of cell proliferation relative to 18:0, MTXγ-PC (T27A cells; liposomes with up to 0.43 mol % (4.2 μM) MTXγ-PC, 24 h): more potent inhibitor of cell proliferation than 18:0, MTXγ-PC
inhibition relative to 18:0, MTXγ-PC (T27A cells; low concentrations, below 1.5 μM, in liposomes): significantly more inhibitory than 18:0, MTXγ-PC

CC/C=C\C/C=C\C/C=C\C/C=C\C/C=C\C/C=C\CCC(=O)O [DHA, docosahexaenoic acid]
% of maximal proliferation (T27A cells; 220 μM DHA alone): 57%
predicted % inhibition at 25 µM (T27A cells; Mus musculus, [DHA] 25 μM): 4.9%
predicted % inhibition at 50 µM (T27A cells; Mus musculus, [DHA] 50 μM): 9.8%
predicted % inhibition at 100 µM (T27A cells; Mus musculus, [DHA] 100 μM): 19.7%
predicted % inhibition at 150 µM (T27A cells; Mus musculus, [DHA] 150 μM): 29.5%
predicted % inhibition at 200 µM (T27A cells; Mus musculus, [DHA] 200 μM): 39.3%
IC50 (T27A cells; Mus musculus, albumin-bound DHA not conjugated to phospholipids, 24 h, 2% serum, read-out: IC50, inhibition of [3H]thymidine incorporation): 211000 nM
IC50 with albumin delivery relative to IC50 for DHA delivered in ethanol (T27A cells; albumin versus ethanol delivery): about 5 times

CN(Cc1cnc2nc(N)nc(N)c2n1)c1ccc(C(=O)N[C@@H](CCC(=O)O)C(=O)O)cc1 [MTX, methotrexate]
% of maximal proliferation (T27A cells; 30 nM MTX alone): 52%
IC50 (T27A cells; Mus musculus, 24 h, read-out: IC50 (dose for 50% inhibition of proliferation)): 30.6 nM
Inhibition (Predicted; %) (T27A cells; [MTX] 2.7 nm): 4.3%
Inhibition (Predicted; %) (T27A cells; [MTX] 9.5 nm): 15.2%
Inhibition (Predicted; %) (T27A cells; [MTX] 16.5 nm): 26.3%
Inhibition (Predicted; %) (T27A cells; [MTX] 23.3 nm): 37.2%
Inhibition (Predicted; %) (T27A cells; [MTX] 26.7 nm): 42.6%
pKa of α-carboxyl group [2]: 3.35
range of inhibitory doses reported [3]: 15 to 240 nM
level at which toxic (human neoplastic cells): 20 nM

Reference: patent US20040052837A1, “Lipid conjugated anti-cancer drugs and methods of use thereof” (priority 2002, published 2004)
